In patent publication US7579365B2 (ZIOPHRAM Oncology, Inc., priority 1998, dated 2009):
In brackets after ≈: the same amount, converted by molar mass. Entries after “also recorded” stand apart in the source; their conditions may differ. Read-outs that look alike come from different tables or passages of the source.

What was measured:
L1210 [1] = experiment: L1210 leukemia model in vivo (% ILS, survival time); settings: Mus musculus, L1210, iv
SK-OV-3 cell line = experiment: XTT proliferation test/cytotoxicity test, SK-OV-3 cell line; assay type: cell-based; settings: for EC50: Homo sapiens, SK-OV-3, SK-OV-3 tumor cells, read-out: XTT EC50 SK-OV-3
Experimental: (§1) In this test system, the effect of substances on the proliferation behavior of tumor cell lines is investigated. In the course of this, the cytotoxic potential of these substances is determined. The test method is described in Scudiero et al. 1988, Cancer Res. 48, 4827.
(§2) The following tumor cell lines were employed in the investigations:
(§3) The KB cell line an epidermal carcinoma of the oral cavity,
(§4) the L1210 cell line a lymphatic leukemia of the mouse, the LNCAP cell line a prostate carcinoma and the SK-OV-3 cell line an ovarian carcinoma.

[2] = in vivo; for Tox. i.p.: ip
LNCAP cell line = experiment: XTT proliferation test/cytotoxicity test, LNCAP cell line; assay type: cell-based; settings: LNCaP tumor cells; for EC50: Homo sapiens, read-out: XTT EC50 LNCaP
Experimental: as §1, §2, §3, §4

L1210 cell line = experiment: XTT proliferation test/cytotoxicity test, L1210 cell line; assay type: cell-based, mouse; settings: for EC50: Mus musculus, L1210, L1210 tumor cells, read-out: XTT EC50 L1210; for XTT EC50 L1210: L1210 tumor cells
Experimental: as §1, §2, §3, §4

KB cell line = experiment: XTT proliferation test/cytotoxicity test, KB cell line; assay type: cell-based; settings: KB tumor cells; for EC50: Homo sapiens, KB, read-out: XTT EC50 KB
Experimental: as §1, §2, §3, §4

DNA = DNA fragmentation; settings: after administration
Dunning tumor = Dunning tumor in the rat; assay type: in vivo; settings: repeated oral administration, 7×100 mg/kg and 7×147 mg/kg p.o.
SK-OV-3 = experiment: In vivo % WHI printed in the SK-OV-3 column of Table 3
MCF-7 = experiment: Hollow fiber assay on the nude mouse, MCF-7; assay type: in vivo
Description: (§5) In the hollow fiber assay, both compounds were almost equally strongly active, while on L 1210 D-24851 was markedly more strongly active after oral and intraperitoneal administration than D-24241.

Hematopoiesis test = assay type: in vivo; settings: intraperitoneal administration; listed as D-24851
KB [3] = experiment: KB test on the nude mouse (% WHI); assay type: in vivo; settings: for % WHI: KB
KB [4] = experiment: Hollow fiber assay on the nude mouse, KB; assay type: in vivo
Description: as §5

L1210 [5] = experiment: Hollow fiber assay on the nude mouse, L1210; assay type: in vivo
Description: as §5

L1210 [6] = experiment: L1210 leukemia model in vivo (% ILS, survival time); set-up: species or system mouse; settings: for Antitumor action on L 1210 (mouse): oral and intraperitoneal administration
Description: as §5

CC(=O)O[C@H]1C(=O)[C@@]2(C)[C@H]([C@H](OC(=O)c3ccccc3)[C@]3(O)C[C@H](OC(=O)[C@H](O)[C@@H](NC(=O)c4ccccc4)c4ccccc4)C(C)=C1C3(C)C)[C@]1(OC(C)=O)CO[C@@H]1C[C@@H]2O [Taxol, reference compound]
ILS at 14.7 mg/kg (L1210 [1]; 1 × 14.7 mg/kg i.v.): 22% | ILS at 46.4 mg/kg (L1210 [1]; 1 × 46.4 mg/kg i.v.): 61% | EC50 (SK-OV-3 cell line): < 0.003 µg/mL | Tox. i.p. [2]: ≈158 i.p. mg/kg | EC50 (LNCAP cell line; LNCaP): < 0.003 µg/mL | EC50 (L1210 cell line): < 0.003 µg/mL | EC50 (KB cell line): < 0.003 µg/mL

O=C(Nc1ccncc1)C(=O)c1cn(Cc2ccc(Cl)cc2)c2ccccc12 [Example 13, N-(Pyridin-4-yl)-[1-(4-chlorobenzyl)indol-3-yl]glyoxylamide]
DNA fragmentation (DNA): no DNA fragmentation | Tumor growth in the Dunning tumor (Dunning tumor; listed as D24851): stoppage of tumor growth and in some animals even tumor regression | Tumor growth in the Dunning tumor (Dunning tumor; listed as D-24851): Stoppage of tumor growth, in some animals even tumor regression | LD50 (in vivo; LD50 1 × per os): 1000 mg/kg | LD50 (in vivo; ip, LD50 1 × ip): > 1000 mg/kg | EC50 (SK-OV-3 cell line): ~0.03 µg/mL (≈ 0.077 µM) | LD50 1 × per os [2]: >1000 mg/kg | Tox. i.p. [2]: ≈1000 i.p. mg/kg | EC50 (LNCAP cell line; LNCaP): ~0.03 µg/mL (≈ 0.077 µM) | EC50 (L1210 cell line): ~0.017 µg/mL (≈ 0.0436 µM) | % WHI (SK-OV-3; 2 × 215 mg/kg po): 18% | % WHI (SK-OV-3; 7 × 46 mg/kg ip): 33% | Hollow fiber intraperitoneal % INH (MCF-7; 4 × 46 mg/kg ip): 38% | Hollow fiber subcutaneous % INH (MCF-7; 4 × 46 mg/kg ip): 47% | Hollow fiber intraperitoneal % INH (MCF-7; 4 × 147 mg/kg ip): 68% | Hollow fiber subcutaneous % INH (MCF-7; 4 × 147 mg/kg ip): 68% | Blood parameters in the hematopoiesis test (Hematopoiesis test): none of the blood parameters investigated were modified; also recorded: none of the blood parameters investigated were altered | Antitumor action in the KB test on the nude mouse (KB [3]): antitumor action | Hollow fiber subcutaneous % INH (KB [4]; 4 × 46 mg/kg ip): 44% | Hollow fiber intraperitoneal % INH (KB [4]; 4 × 147 mg/kg ip): 12% | Hollow fiber subcutaneous % INH (KB [4]; 4 × 147 mg/kg ip): 35% | Hollow fiber intraperitoneal % INH (L1210 [5]; 4 × 46 mg/kg ip): 56% | Hollow fiber subcutaneous % INH (L1210 [5]; 4 × 46 mg/kg ip): no action | Hollow fiber intraperitoneal % INH (L1210 [5]; 4 × 147 mg/kg ip): 60% | Hollow fiber subcutaneous % INH (L1210 [5]; 4 × 147 mg/kg ip): 67% | EC50 (KB cell line): ~0.017 µg/mL (≈ 0.0436 µM) | ILS at 464 mg/kg (L1210 [6]; Mus musculus, L1210, ip, 1 × 464 mg/kg ip): 18% | ILS at 681 mg/kg (L1210 [6]; Mus musculus, L1210, ip, 1 × 681 mg/kg ip): 0% | ILS at 147 mg/kg (L1210 [6]; Mus musculus, L1210, ip, 4 × 147 mg/kg ip): 94% | ILS at 215 mg/kg (L1210 [6]; Mus musculus, L1210, ip, 4 × 215 mg/kg ip): 13% | ILS at 100 mg/kg (L1210 [6]; Mus musculus, L1210, ip, 7 × 100 mg/kg ip): 35% | ILS at 147 mg/kg (L1210 [6]; Mus musculus, L1210, ip, 7 × 147 mg/kg ip): 59% | ILS at 681 mg/kg (L1210 [6]; Mus musculus, L1210, po, 1 × 681 mg/kg po): 22% | ILS at 215 mg/kg (L1210 [6]; Mus musculus, L1210, po, 4 × 215 mg/kg po): 31% | ILS at 100 mg/kg (L1210 [6]; Mus musculus, L1210, po, 7 × 100 mg/kg po): 63% | ILS at 147 mg/kg (L1210 [6]; Mus musculus, L1210, po, 7 × 147 mg/kg po): 75% | Prolongation of the survival time, L1210 (L1210 [6]; intraperitoneal or oral administration, 100 and 147 mg/kg multiple dose): distinct dose-dependent prolongation of the survival time | Antitumor action on L 1210 (mouse) (L1210 [6]): strong dose-dependent antitumor action

O=C(Nc1ccncc1)C(=O)c1cn(Cc2ccc(F)cc2)c2ccccc12 [Example 1, N-(Pyridin-4-yl)-[1-(4-fluorobenzyl)indol-3-yl]glyoxylamide]
LD50 (in vivo; LD50 1 × per os): > 1000 mg/kg | LD50 (in vivo; ip, LD50 1 × ip): ~158 mg/kg | EC50 (SK-OV-3 cell line): 0.17 µg/mL (≈ 0.455 µM) | XTT EC50 SK-OV-3 (SK-OV-3 cell line; SK-OV-3 tumor cells, listed as D-24241): SKOV3 ≈ 0.17 μg/ml | Tox. i.p. [2]: ≈158 i.p. mg/kg | EC50 (LNCAP cell line): > 31.6 µg/mL | XTT EC50 LNCaP (LNCAP cell line; listed as D 24241): >31.6 µg/mL | XTT EC50 LNCaP (LNCAP cell line; listed as D-24241): LNCAP > 31.6 μg/ml | XTT EC50 L1210 (L1210 cell line; listed as 1 (D 24241)): 0.170 µg/mL | XTT EC50 L1210 (L1210 cell line; listed as D 24241): ≈0.17 μg/ml | XTT EC50 L1210 (L1210 cell line; listed as D-24241): L1210 ≈ 0.07 μg/ml | Hollow fiber intraperitoneal % INH (MCF-7; 4 × 15.8 mg/kg ip): no action | Hollow fiber subcutaneous % INH (MCF-7; 4 × 15.8 mg/kg ip): 33% | % WHI (KB [3]; 2 × 46.4 mg/kg ip): 22% | % WHI (KB [3]; 2 × 215 mg/kg po): 47% | Antitumor action in the KB test on the nude mouse (KB [3]): antitumor action | Hollow fiber intraperitoneal % INH (KB [4]; 4 × 15.8 mg/kg ip): 46% | Hollow fiber subcutaneous % INH (KB [4]; 4 × 15.8 mg/kg ip): 81% | Hollow fiber intraperitoneal % INH (L1210 [5]; 4 × 15.8 mg/kg ip): 43% | Hollow fiber subcutaneous % INH (L1210 [5]; 4 × 15.8 mg/kg ip): 68% | EC50 (KB cell line): 0.02 µg/mL (≈ 0.0536 µM) | XTT EC50 KB (KB cell line; listed as D-24241): KB ≈ 0.02 μg/ml | % ILS L1210 (L1210 [6]; 19 × 50 mg/kg per os, listed as D-24241, 50 mg/kg): 50% ILS | ILS at 464 mg/kg (L1210 [6]; Mus musculus, L1210, po, 1 × 464 mg/kg per os): 44% | ILS at 50 mg/kg (L1210 [6]; Mus musculus, L1210, po, 19 × 50 mg/kg per os): 50% | Antitumor action on L 1210 (mouse) (L1210 [6]): strong dose-dependent antitumor action
